From ChEMBL document CHEMBL3832029, “DailyMed|setid=517810a4-76bb-4739-893f-1f2ba94a5d0c | ZENATANE -isotretinoin capsule, gelatine coated”
“And” between values parts separate entries of the source, which are not always exact repeats. Equal values may be shown once.

Legend:
Format in all cases: ADME, organism-based
[1] = (§1) Steady-state pharmacokinetic parameters of Isotretinoin following multiple oral administration of Isotretinoin to 38 pediatric patients, […], after a non-standardised meal.; design: route oral; conditions: human, in vivo, dietary status Fed, dosed compound id 16, dosed compound name ISOTRETINOIN, regimen Multiple dose, tissue Plasma
Homo sapiens [2] = test: as §1; design: route oral; conditions: in vivo, po, dietary status Fed, dosed compound id 16, dosed compound name ISOTRETINOIN, regimen Multiple dose, tissue Plasma
[3] = (§2) Mean pharmacokinetics parameters for Isotretinoin following single oral administration of Isotretinoin to healthy subjects.; design: dose 80 mg, route oral; conditions: human, in vivo, dietary status Fed, dosed compound id 16, dosed compound name ISOTRETINOIN, regimen Single dose, tissue Plasma; for AUC: po, 80 mg
Homo sapiens [4] = test: as §2; design: dose 80 mg, route oral; conditions: in vivo, po, dosed compound id 16, dosed compound name ISOTRETINOIN, regimen Single dose, tissue Plasma
[5] = dietary status Fasting, dose 80 mg

Cmax ([1]; po): 732 ng/mL
AUC ([1]; po, read-out: AUC(0-12)): 5080 ng·h/mL
CL/F ([1]; route oral): 299 mL/min
Tmax ([1]; route oral): 4 h
half-life ([1]; route oral): 15.7 h
Css min (Homo sapiens [2]): 352.32 ng/mL
AUC ([3]; read-out: AUC(0-12)): 3030 ng·h/mL
AUC ([3]; read-out: AUC(0-24)): 6000 ng·h/mL
Tmax ([3]; dose 80 mg, route oral): 5.3 h
half-life ([3]; dose 80 mg, route oral): 21 h
Tmax (Homo sapiens [4]; [5]): 3.2 h
t1/2 (Homo sapiens [4]; [5]): 21 h
AUC(0 to inf) (Homo sapiens [4]; dietary status Fasting): 3700 ng·h/mL
Cmax (Homo sapiens [4]; dietary status Fasting): 301 ng/mL
AUC(0 to inf) (Homo sapiens [4]; dietary status Fed): 10000 ng·h/mL
Cmax (Homo sapiens [4]; dietary status Fed): 862 ng/mL and 573.25 ng/mL
Tmax (Homo sapiens [4]; dietary status Fed): 6 h
SMILES: CC1=C(/C=C/C(C)=C/C=C/C(C)=C\C(=O)O)C(C)(C)CCC1 [ISOTRETINOIN]
